Source: patent US10005767B2, “Compositions and methods for inhibition of the JAK pathway” (Rigel Pharmaceuticals, Inc., priority 2009, dated 2018)
Where a name gives a salt, the structure may show the parent alone. Read-outs that look alike come from different tables or passages of the source.

Test system: human primary T-cells, IL-2 stimulated proliferation (JAK-1 and JAK-3 dependent; reported as JAK3 activity)
Experiment: Human primary T-cell proliferation stimulated by IL-2 (Example 3)
Format: cell-based
Conditions: tested under conditions described in Example 3 (IL-2 stimulated human primary T-cell proliferation), read-out: ability to inhibit JAK3 activity, IC50 range (Table V)
How it was run: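 Peripheral-blood human T-cells pre-activated via TCR/CD28, IL-2-starved overnight, then cultured 72 h at 37 °C with compound in Yssel's medium containing IL-2 (80 U/mL in cell suspension). Proliferation read as viable-cell ATP by CellTiter-Glo luminescence; reduction versus control taken as JAK pathway inhibition.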

In the case of `Cc1cnc(Nc2cc(F)cc(F)c2F)nc1Nc1ccc2oc(=O)[nH]c2c1` [Compound I-480, 5-[5-Methyl-2-(2,3,5-trifluoro-phenylamino)-pyrimidin-4-ylamino]-3H-benzooxazol-2-one], the IC50 (Homo sapiens, T-cell) is reported as over 10000 nM.

For `Cc1cnc(Nc2cc(F)c(F)cc2F)nc1Nc1ccc2oc(=O)[nH]c2c1` [Compound I-481, 5-[5-Methyl-2-(2,4,5-trifluoro-phenylamino)-pyrimidin-4-ylamino]-3H-benzooxazol-2-one], the IC50 (Homo sapiens, T-cell) was under 500 nM.

In the case of `Cc1cc(Nc2ncc(C)c(Nc3ccc4oc(=O)[nH]c4c3)n2)ccc1-c1ccncc1` [Compound I-482, 5-(5-methyl-2-(3-methyl-4-(pyridin-4-yl)phenylamino)pyrimidin-4-ylamino)benzo[d]oxazol-2(3H)-one formate salt], the IC50 (Homo sapiens, T-cell) is reported as under 500 nM.

Compound `Cc1cc(Nc2ncc(C)c(Nc3ccc4oc(=O)[nH]c4c3)n2)ccc1-c1cccnc1` [Compound I-483, 5-(5-methyl-2-(3-methyl-4-(pyridin-3-yl)phenylamino)pyrimidin-4-ylamino)benzo[d]oxazol-2(3H)-one formate salt] has an IC50 (Homo sapiens, T-cell) of under 500 nM.

For `Cc1cnc(Nc2ccc(-c3ccncc3)c(F)c2)nc1Nc1ccc2oc(=O)[nH]c2c1` [Compound I-484, 5-(2-(3-fluoro-4-(pyridin-4-yl)phenylamino)-5-methylpyrimidin-4-ylamino)benzo[d]oxazol-2(3H)-one], the IC50 (Homo sapiens, T-cell) was 500 to 5000 nM.

`COc1cc(Nc2ncc(C)c(Nc3ccc4oc(=O)[nH]c4c3)n2)cc(C(F)(F)F)c1OC` [Compound I-485, N2-(3,4-dimethoxy-5-trifluoromethyl)phenyl-5-methyl-N4-(2-oxo-2,3-dihydro-1,3-benzoxazol-5-yl)-2,4-pyrimidinediamine] was tested, and the IC50 was under 500 nM.

With `COc1ccc(Nc2ncc(C)c(Nc3ccc4oc(=O)[nH]c4c3)n2)cc1-c1ccncc1` [Compound I-486, 5-(2-(4-methoxy-3-(pyridin-4-yl)phenylamino)-5-methylpyrimidin-4-ylamino)benzo[d]oxazol-2(3H)-one formate salt] the IC50 (Homo sapiens, T-cell) was under 500 nM.

Work on `COc1ccc(Nc2ncc(C)c(Nc3ccc4oc(=O)[nH]c4c3)n2)cc1-c1cccnc1` [Compound I-487, 5-(2-(4-methoxy-3-(pyridin-3-yl)phenylamino)-5-methylpyrimidin-4-ylamino)benzo[d]oxazol-2(3H)-one formate salt] yielded an IC50 (Homo sapiens, T-cell) of under 500 nM.

`Cc1cc(C)cc(Nc2ncc(C)c(Nc3cc(F)c4oc(=O)[nH]c4c3)n2)c1` [Compound I-488, 5-(2-(3,5-dimethylphenylamino)-5-methylpyrimidin-4-ylamino)-7-fluorobenzo[d]oxazol-2(3H)-one] was tested, and the IC50 (Homo sapiens, T-cell) was under 500 nM.

`Cc1cnc(Nc2cc(C)c(C)c(C)c2)nc1Nc1cc(F)c2oc(=O)[nH]c2c1` [Compound I-489, 7-fluoro-5-(5-methyl-2-(3,4,5-trimethylphenylamino)pyrimidin-4-ylamino)benzo[d]oxazol-2(3H)-one] gave an IC50 (Homo sapiens, T-cell) of under 500 nM.

Work on `Cc1cnc(Nc2cc(C)c(F)c(C)c2)nc1Nc1cc(F)c2oc(=O)[nH]c2c1` [Compound I-490, 7-fluoro-5-(2-(4-fluoro-3,5-dimethylphenylamino)-5-methylpyrimidin-4-ylamino)benzo[d]oxazol-2(3H)-one] yielded an IC50 (Homo sapiens, T-cell) of under 500 nM.

Work on `COc1cc(Nc2ncc(C)c(Nc3cc(C)c4oc(=O)[nH]c4c3)n2)cc(C)c1F` [Compound I-491, 5-(2-(4-fluoro-3-methoxy-5-methylphenylamino)-5-methylpyrimidin-4-ylamino)-7-methylbenzo[d]oxazol-2(3H)-one] yielded an IC50 (Homo sapiens, T-cell) of under 500 nM.

With `COc1cc(Nc2ncc(C)c(Nc3cc(F)c4oc(=O)[nH]c4c3)n2)cc(C)c1F` [Compound I-492, 7-fluoro-5-(2-(4-fluoro-3-methoxy-5-methylphenylamino)-5-methylpyrimidin-4-ylamino)benzo[d]oxazol-2(3H)-one] the IC50 (Homo sapiens, T-cell) was under 500 nM.

In the case of `Cc1cnc(Nc2ccc(C)c(C)c2F)nc1Nc1ccc2oc(=O)[nH]c2c1` [Compound I-493, N2-(3,4-dimethyl-2-fluoro)phenyl-5-methyl-N4-(2-oxo-2,3-dihydro-1,3-benzoxazol-5-yl)-2,4-pyrimidinediamine], the IC50 is reported as under 500 nM.

Work on `COc1cc(Nc2ncc(C)c(Nc3ccc4oc(=O)[nH]c4c3)n2)ccc1-c1ccncc1` [Compound I-494, 5-(2-(3-methoxy-4-(pyridin-4-yl)phenylamino)-5-methylpyrimidin-4-ylamino)benzo[d]oxazol-2(3H)-one formate salt] yielded an IC50 (Homo sapiens, T-cell) of 500 to 5000 nM.

In the case of `Cc1cnc(Nc2cc(Cl)cc(OC(F)F)c2)nc1Nc1ccc2oc(=O)[nH]c2c1` [Compound I-495, N2-(3-chloro-5-difluoromethoxy)phenyl-5-methyl-N4-(2-oxo-2,3-dihydro-1,3-benzoxazol-5-yl)-2,4-pyrimidinediamine], the IC50 is reported as under 500 nM.

`COc1ccc(Nc2ncc(C)c(Nc3ccc4oc(=O)[nH]c4c3)n2)cc1Cl` [Compound I-496, 5-[2-(3-Chloro-4-methoxy-phenylamino)-5-methyl-pyrimidin-4-ylamino]-3H-benzooxazol-2-one] gave an IC50 (Homo sapiens, T-cell) of under 500 nM.

`Cc1cnc(Nc2cc(Cl)cc(C(F)(F)F)c2)nc1Nc1ccc2oc(=O)[nH]c2c1` [Compound I-497, 5-[2-(3-Chloro-5-trifluoromethyl-phenylamino)-5-methyl-pyrimidin-4-ylamino]-3H-benzooxazol-2-one] showed an IC50 (Homo sapiens, T-cell) of over 10000 nM.

`COc1ccc(C(F)(F)F)cc1Nc1ncc(C)c(Nc2ccc3oc(=O)[nH]c3c2)n1` [Compound I-498, 5-[2-(2-Methoxy-5-trifluoromethyl-phenylamino)-5-methyl-pyrimidin-4-ylamino]-3H-benzooxazol-2-one] gave an IC50 (Homo sapiens, T-cell) of 500 to 5000 nM.

`Cc1ccccc1Nc1ncc(C)c(Nc2ccc3oc(=O)[nH]c3c2)n1` [Compound I-499, 5-(2-(o-toluidino)-5-methylpyrimidin-4-ylamino)benzo[d]oxazol-2(3H)-one] showed an IC50 (Homo sapiens, T-cell) of 500 to 5000 nM.

Work on `Cc1cnc(Nc2cccc(C)c2C)nc1Nc1ccc2oc(=O)[nH]c2c1` [Compound I-500, 5-(2-(2,3-dimethylphenylamino)-5-methylpyrimidin-4-ylamino)benzo[d]oxazol-2(3H)-one] yielded an IC50 (Homo sapiens, T-cell) of 500 to 5000 nM.

`Cc1ccc(C)c(Nc2ncc(C)c(Nc3ccc4oc(=O)[nH]c4c3)n2)c1` [Compound I-501, 5-(2-(2,5-dimethylphenylamino)-5-methylpyrimidin-4-ylamino)benzo[d]oxazol-2(3H)-one] was tested, and the IC50 (Homo sapiens, T-cell) was 500 to 5000 nM.

For `CCc1ccccc1Nc1ncc(C)c(Nc2ccc3oc(=O)[nH]c3c2)n1` [Compound I-502, 5-(2-(2-ethylphenylamino)-5-methylpyrimidin-4-ylamino)benzo[d]oxazol-2(3H)-one], the IC50 (Homo sapiens, T-cell) was 500 to 5000 nM.

For `CCc1cccc(Nc2ncc(C)c(Nc3ccc4oc(=O)[nH]c4c3)n2)c1` [Compound I-503, 5-(2-(3-ethylphenylamino)-5-methylpyrimidin-4-ylamino)benzo[d]oxazol-2(3H)-one], the IC50 (Homo sapiens, T-cell) was under 500 nM.

With `CCc1ccc(Nc2ncc(C)c(Nc3ccc4oc(=O)[nH]c4c3)n2)cc1` [Compound I-504, 5-(2-(4-ethylphenylamino)-5-methylpyrimidin-4-ylamino)benzo[d]oxazol-2(3H)-one] the IC50 (Homo sapiens, T-cell) was under 500 nM.

Work on `Cc1cnc(Nc2ccc(-c3cccnc3)c(F)c2)nc1Nc1ccc2oc(=O)[nH]c2c1` [Compound I-505, 5-(2-(3-fluoro-4-(pyridin-3-yl)phenylamino)-5-methylpyrimidin-4-ylamino)benzo[d]oxazol-2(3H)-one trifluoroacetic acid salt] yielded an IC50 (Homo sapiens, T-cell) of over 10000 nM.

For `COc1cc(Nc2ncc(C)c(Nc3ccc4oc(=O)[nH]c4c3)n2)ccc1-c1cccnc1` [Compound I-506, 5-(2-(3-methoxy-4-(pyridin-3-yl)phenylamino)-5-methylpyrimidin-4-ylamino)benzo[d]oxazol-2(3H)-one formate salt], the IC50 (Homo sapiens, T-cell) was under 500 nM.

With `COc1c(F)ccc(Nc2ncc(C)c(Nc3cc(C)c4oc(=O)[nH]c4c3)n2)c1F` [Compound I-507, 5-(2-(2,4-difluoro-3-methoxyphenylamino)-5-methylpyrimidin-4-ylamino)-7-methylbenzo[d]oxazol-2(3H)-one] the IC50 (Homo sapiens, T-cell) was under 500 nM.

With `COc1c(F)ccc(Nc2ncc(C)c(Nc3cc(F)c4oc(=O)[nH]c4c3)n2)c1F` [Compound I-508, 5-(2-(2,4-difluoro-3-methoxyphenylamino)-5-methylpyrimidin-4-ylamino)-7-fluorobenzo[d]oxazol-2(3H)-one] the IC50 (Homo sapiens, T-cell) was under 500 nM.

With `Cc1cnc(Nc2ccc(-c3ccc(Cl)nc3)cc2)nc1Nc1ccc2oc(=O)[nH]c2c1` [Compound I-509, 5-(2-(4-(6-chloropyridin-3-yl)phenylamino)-5-methylpyrimidin-4-ylamino)benzo[d]oxazol-2(3H)-one trifluoroacetate salt] the IC50 (Homo sapiens, T-cell) was over 10000 nM.

`Cc1cnc(Nc2ccc(-c3ccc(OCCCN(C)C)nc3)cc2)nc1Nc1ccc2oc(=O)[nH]c2c1` [Compound I-511, 5-(2-(4-(6-(3-(dimethylamino)propoxy)pyridin-3-yl)phenylamino)-5-methylpyrimidin-4-ylamino)benzo[d]oxazol-2(3H)-one trifluoroacetate salt] showed an IC50 (Homo sapiens, T-cell) of under 500 nM.

Compound `Cc1cnc(Nc2ccc(-c3ccc(N4CCOCC4)nc3)cc2)nc1Nc1ccc2oc(=O)[nH]c2c1` [Compound I-512, 5-(5-methyl-2-(4-(6-morpholinopyridin-3-yl)phenylamino)pyrimidin-4-ylamino)benzo[d]oxazol-2(3H)-one trifluoroacetate salt] has an IC50 (Homo sapiens, T-cell) of under 500 nM.

`Cc1cnc(Nc2cccc(C)c2F)nc1Nc1ccc2oc(=O)[nH]c2c1` [Compound I-513, 5-(2-(2-fluoro-3-methylphenylamino)-5-methylpyrimidin-4-ylamino)benzo[d]oxazol-2(3H)-one] was tested, and the IC50 (Homo sapiens, T-cell) was under 500 nM.

`Cc1ccc(Nc2ncc(C)c(Nc3ccc4oc(=O)[nH]c4c3)n2)c(F)c1` [Compound I-514, 5-(2-(2-fluoro-4-methylphenylamino)-5-methylpyrimidin-4-ylamino)benzo[d]oxazol-2(3H)-one] was tested, and the IC50 (Homo sapiens, T-cell) was under 500 nM.
